One assay concerns the target T1, melatonin ML1a receptor (Homo sapiens, UniProt P48039).
T1 construct: expressed in transfected cells; membrane homogenates
The assay can be described thus: Melatonergic receptor binding, 2-[125I]-iodomelatonin, ML1a. To be noted: NIH-3T3 membranes, 0.1 nM 2-[125I]-iodomelatonin, 37° C. 1 hour. In a few lines: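 Membranes from NIH-3T3 cells stably expressing human ML1a receptor were incubated 1 h at 37° C in Tris/MgCl2/EDTA buffer, pH 7.4, with 0.1 nM 2-[125I]-iodomelatonin. Nonspecific binding defined with 10^−5 M melatonin (final). Binding terminated by filtration with three washes.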

A further assay has as its target T2, melatonin ML1b receptor (Homo sapiens, UniProt P49286).
T2 construct: expressed in transfected cells; membrane homogenates
T2 sequence (P49286 1-362): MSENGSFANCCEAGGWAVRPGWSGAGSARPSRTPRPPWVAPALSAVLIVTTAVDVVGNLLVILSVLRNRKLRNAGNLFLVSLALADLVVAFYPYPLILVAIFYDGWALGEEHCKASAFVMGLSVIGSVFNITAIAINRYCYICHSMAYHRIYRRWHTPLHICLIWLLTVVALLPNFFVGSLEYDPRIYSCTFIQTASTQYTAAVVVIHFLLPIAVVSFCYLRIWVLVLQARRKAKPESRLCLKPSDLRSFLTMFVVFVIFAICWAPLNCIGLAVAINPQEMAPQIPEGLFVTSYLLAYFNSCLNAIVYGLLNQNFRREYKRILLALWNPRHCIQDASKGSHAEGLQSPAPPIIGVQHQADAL
Description: Melatonergic receptor binding, 2-[125I]-iodomelatonin, ML1b. The note with it: NIH-3T3 membranes, 0.2 nM 2-[125I]-iodomelatonin, 37° C. 1 hour. In a few lines:
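Membranes from NIH-3T3 cells stably expressing the human receptor, incubated with 0.2 nM 2-[125I]-iodomelatonin in Tris/MgCl2/EDTA buffer, pH 7.4, 1 h at 37° C. Nonspecific binding defined with 10^−5 M melatonin (final). Bound radioligand separated by filtration.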

T1 sequence (P48039 whole entry): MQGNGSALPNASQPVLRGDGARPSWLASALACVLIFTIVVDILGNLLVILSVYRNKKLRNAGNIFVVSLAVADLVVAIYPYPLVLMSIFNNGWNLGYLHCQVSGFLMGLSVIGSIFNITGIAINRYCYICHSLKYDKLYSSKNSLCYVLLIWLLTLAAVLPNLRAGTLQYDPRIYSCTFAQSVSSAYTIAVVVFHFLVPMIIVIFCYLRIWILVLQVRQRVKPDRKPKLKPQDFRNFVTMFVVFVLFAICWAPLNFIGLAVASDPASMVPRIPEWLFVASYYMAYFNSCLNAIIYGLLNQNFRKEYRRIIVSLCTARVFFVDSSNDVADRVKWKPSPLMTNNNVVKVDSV

One may read the IC50 as the point on the concentration scale where inhibition reaches its midpoint. A lower IC50 goes with higher potency. For “N-({(1R,2R)-2-[2-(5-Phenylbutyl)benzoxazol-7-yl]cyclopropyl}methyl)acetamide [Example 94]”, the IC50 on melatonin ML1a receptor (Table III) and on melatonin ML1b receptor (Table III) was below 10 nM throughout.
On to `CCNC(=O)NCCCc1cccc2nc(-c3ccccc3)oc12` [Example 24, (Ethylamino)-N-[3-(2-phenylbenzoxazol-7-yl)propyl]carboxamide], for which the half-inhibitory concentration (IC50) is above 250 nM on melatonin ML1a receptor (Table I) and 10 to 250 nM at melatonin ML1b receptor (Table I).
For `CC(=O)NCCCc1cccc2nc(C)oc12` [Example 1, N-[3-(2-Methyl-7-benzoxazolyl)propyl]acetamide], the IC50 at melatonin ML1a receptor (Table I) and on melatonin ML1b receptor (Table I) was 10 to 250 nM each time.
For `CCCc1nc2cccc(CCCNC(=O)C3CC3)c2o1` [Example 17, Cyclopropyl-N-[3-(2-propylbenzoxazol-7-yl)propyl]carboxamide], the IC50 at melatonin ML1a receptor (Table I) and on melatonin ML1b receptor (Table I) was 10 to 250 nM in each case.
`CCNC(=O)NCCCc1cccc2nc(CC)oc12` [Example 12, (Ethylamino)-N-[3-(2-ethylbenzoxazol-7-yl)propyl]carboxamide]: the IC50 on melatonin ML1a receptor (Table I) and at melatonin ML1b receptor (Table I) was 10 to 250 nM each time.
For `CCc1nc2cccc([C@@H]3C[C@H]3CNC(C)=O)c2o1` [Example 76, N-{[(1R,2R)-2-(2-Ethylbenzoxazol-7-yl)cyclopropyl]methyl}acetamide], the IC50 at melatonin ML1a receptor (Table III) and on melatonin ML1b receptor (Table III) was below 10 nM throughout.
Regarding `CCNC(=O)NC[C@@H]1C[C@H]1c1cccc2nc(CC)oc12` [Example 81, N-{[(1R,2R)-2-(2-Ethylbenzoxazol-7-yl)cyclopropyl]methyl}(ethylamino)carboxamide], the half-inhibitory concentration (IC50) on melatonin ML1a receptor (Table III) and at melatonin ML1b receptor (Table III) was below 10 nM throughout.

The record behind these values is patent US6737431B2 (Bristol-Myers Squibb Company, priority 2002, dated 2004).
